Laboratory results taken from patent US20150086627A1, “DOSAGE FORMS OF HALOFUGINONE AND METHODS OF USE” (priority 2012, published 2015).
Structures can show the parent of a compound that is named as a salt. Where two headings read alike, the source gives them in different places.

Columns and labels:
cell lines = conditions: cited from earlier work
[1] = system: human leiomyosarcoma tumor cells; conditions: low concentrations; cells stimulated by serum or HB-EGF; cited from earlier work
beagle dogs = conditions: 6 Beagle dogs, oral solution 0.15 mg/kg
Method: Two groups of 6 male Beagle dogs were dosed with two formulations or two routes of administration of Halofuginone hydrobromide. In a cross-over study design, one group received an oral (PO) dose at ˜0.15 mg/kg as enteric-coated (EC) tablets in a gelatin capsule and then another oral dose at 0.15 mg/kg as a solution 7 days later. The second group received a subcutaneous (SC) dose at 0.03 mg/kg as a solution and then an intravenous (IV) dose at 0.05 mg/kg as a solution. The test article was administered once for each dose level and dosage form. The animals were dosed once a week or after completing at least a 7 day washout period. The dose formulations of Halofuginone hydrobromide were EC tablets or 0.3 mg/mL solutions. The EC tablets contained 0.075 mg of Halofuginone hydrobromide. The tablets (20/dog) were loaded into a gelatin capsule prior to dosing.
Each animal received a physical examination prior to dosing, with cage side observations for mortality and morbidity twice daily thereafter. Detailed clinical observations were performed prior to dosing and at 15 minute (min) intervals during the first 2 hours (h) postdose, at 4, 8, and 24 h postdose on dosing days. […]

[2] = Plasma pharmacokinetics of halofuginone in male beagle dogs (Example B); assay type: in vivo; conditions: dog
Method: Five groups of five male beagle dogs (25 total dogs) were orally administered various compositions of halofuginone solutions. […] The dogs were fasted overnight prior to administration, and food was returned four hours post-administration. Plasma was drawn from each animal at the time of administration, and then at eight successive time points (0.5, 1, 2, 4, 8, 12, 24, and 48 hours post-administration).
The plasma samples, collected from the dogs at the various time points, were assayed for halofuginone concentrations using HPLC-MS/MS (ACE Excel 2C18 AR, 50×2.1 mm column). [Cmax: maximum observed halofuginone concentration; tmax: time point at Cmax; AUC(0-t): AUC to the last non-zero concentration (t is the corresponding time); AUC(0-∞): AUC(0-∞)=AUC(0-t)+AUC(t-∞); t1/2: half-life; time taken for drug plasma concentration to fall by one-half; Vz_obs: observed volume of distribution; Cl_obs: observed clearance]

mdx mice = conditions: cited from earlier work
Plasmodium berghei = conditions: Plasmodium berghei-infected mice; cited from earlier work
dogs = test: Previous study in dogs, daily oral dosing for up to 28 days; assay type: in vivo
Method: The dose levels were selected based on the results of a previous study in dogs in which the high-dose group was dosed at 0.15 mg/kg/day for up to 28 days (this dose was tolerated for the entire course of the study).

mice = conditions: mouse, in vivo, cited from earlier work
[3] = Plasma pharmacokinetics of Halofuginone hydrobromide in Beagle dogs (Example C); conditions: dog, in vivo; for half-life: t1/2
Method: Blood samples were collected from the jugular, cephalic, or saphenous veins into tubes containing EDTA at the following time points: 0, 0.5, 1, 2, 4, 8, 12, 24, and 48 h postdose. Blood samples were kept on wet ice until processing. Blood samples were centrifuged at 3200 RPM for 10 min at ˜5° C. Plasma samples were directly transferred to a 96-well plate tube (1.1 mL). Plug caps were placed on the tubes. Plasma samples were stored at −20±5° C. until they were shipped for analysis.
Statistical analysis of PK parameters for dogs treated with both enteric and oral solutions were calculated using Excel® spreadsheets. Summary statistics were derived for the following PK parameters for each dog receiving both the dog EC tablets and the oral drug as a clear solution in Group 1: • Cmax (ng/mL): Maximum Observed Concentration • tmax (h): Time Point at Cmax • AUC(0−t) (ng·h/mL): AUC to the last non-zero concentration (t is the corresponding time) • AUC(0−∞) (ng·h/mL): AUC(0-∞)=AUC(0-t)+AUC(t-∞) • t1/2(h): Half-life; time taken for drug plasma concentration to fall by one-half • % F: Bioavailability; [AUC(0-t)×*Dose IV (mg/kg)]/[AUC(0-t)IV*Dose×(mg/kg)] Paired differences for each dog were determined by subtracting the summary PK value as follows: […]

[4] = system: vascular SMC and fibroblasts; conditions: cited from earlier work
[5] = male, beagle, in vivo, po, 0.15 mg/kg
[6] = male, Beagle, iv, 0.05 mg/kg, Mean Conc. (plasma)
[7] = male, Beagle, iv, 0.05 mg/kg, Sample Conc. (plasma)
[8] = male, Beagle, po, 0.15 mg/kg, Mean Conc. (plasma)
[9] = male, Beagle, sc, 0.03 mg/kg, Mean Conc. (plasma)
[10] = male, Beagle, sc, 0.03 mg/kg, Sample Conc. (plasma)

## O=C(C[C@@H]1NCCC[C@H]1O)Cn1cnc2cc(Br)c(Cl)cc2c1=O [Halofuginone hydrobromide, 7-Bromo-6-chloro-3-[3-[(2S,3R)-3-hydroxy-2-piperidinyl]-2-oxopropyl]-4-quinazolinone]
Cell lines
  angiogenesis inhibition: effective angiogenesis inhibitor
[1]
  inhibition of DNA synthesis: strong inhibitor of DNA synthesis
Beagle dogs
  animals with emesis: 5 of 6
  episodes of emesis (total emetic events): 18
[2]; plasma, male beagle dogs, oral 0.15 mg/kg aqueous solution, mean
  half-life: 889 min
[2]; [5]
  AUC(0-inf): 49.1 ng·h/mL
  AUC(0-t): 39.5 ng·h/mL
  Cl_obs: 3.47 L/h/kg
  Cmax: 5.26 ng/mL
  Tmax: 54 min
  Vz_obs: 70.73 L/kg
Mdx mice
  muscle physiology / muscle regeneration: effective in improving muscle physiology and/or reducing the pressure on muscle regeneration
Plasmodium berghei
  curative effects: displayed curative effects
  parasitemias: reduce parasitemias to undetectable levels
dogs; 0.15 mg/kg/day for up to 28 days
  clinical signs of toxicity: emesis and decreased activity during the first week of dosing
dogs; high-dose group 0.15 mg/kg/day for up to 28 days
  tolerability: tolerated
mice; 5 mg/kg
  gastrointestinal tract injuries: widespread gastrointestinal tract injuries, e.g., intestinal hemorrhage
mice; sc
  gastrointestinal tract injuries: did not experience the same levels of gastrointestinal tract injuries
[3]
  absolute bioavailability versus oral solution: increased
[3]; male, Beagle, iv, 0.05 mg/kg
  Cmax: 6.95 ng/mL
  half-life: 621 min
[3]; [6]
  concentration at 0.083 h: 6.96 ng/mL
  concentration at 0.5 h: 4.47 ng/mL
  concentration at 1 h: 3.81 ng/mL
  concentration at 2 h: 2.29 ng/mL
  concentration at 4 h: 1.74 ng/mL
  concentration at 8 h: 1.08 ng/mL
  concentration at 12 h: 0.76 ng/mL
  concentration at 24 h: 0.67 ng/mL
  concentration at 48 h: 0.23 ng/mL
[3]; [7]
  concentration at 0.083 h: 7.81 ng/mL
  concentration at 0.5 h: 5.52 ng/mL
  concentration at 1 h: 3.55 ng/mL
  concentration at 2 h: 2.13 ng/mL
  concentration at 8 h: 0.8 ng/mL
[3]; male, Beagle, iv, 0.05 mg/kg, tmax
  Tmax: 4.8 min
[3]; [8]
  concentration at 0.5 h: 6.41 ng/mL
  concentration at 1 h: 4.97 ng/mL
  concentration at 2 h: 3.68 ng/mL
  concentration at 4 h: 1.87 ng/mL
  concentration at 8 h: 1.38 ng/mL
  concentration at 12 h: 1.14 ng/mL
  concentration at 24 h: 0.53 ng/mL
  concentration at 48 h: 0.2 ng/mL
[3]; male, Beagle, po, 0.15 mg/kg
  half-life: 810 min
[3]; male, Beagle, po, 0.15 mg/kg, tmax
  Tmax: 34.8 min
[3]; male, Beagle, sc, 0.03 mg/kg, 48 h
  Sample Conc. (plasma): 0.12 ng/mL
[3]; male, Beagle, sc, 0.03 mg/kg
  Cmax: 3.66 ng/mL
[3]; [9]
  concentration at 0.5 h: 3.62 ng/mL
  concentration at 1 h: 1.79 ng/mL
  concentration at 2 h: 1.4 ng/mL
  concentration at 4 h: 1 ng/mL
  concentration at 8 h: 0.63 ng/mL
  concentration at 12 h: 0.51 ng/mL
  concentration at 24 h: 0.14 ng/mL
[3]; [10]
  concentration at 0.5 h: 2.82 ng/mL
  concentration at 1 h: 1.67 ng/mL
  concentration at 48 h: 0.16 ng/mL
[3]; male, Beagle, sc, 0.03 mg/kg, tmax
  Tmax: 30 min
[3]; male, beagle, po, 0.15 mg/kg
  Tmax: 60 min
[4]
  growth of vascular SMC and fibroblasts: inhibits autocrine growth of vascular SMC and fibroblasts
